Where two headings read alike, the source gives them in different places.
Columns and labels:
MDA-N [1] = system: MDA-N
786-0 [2] = system: 786-0
UACC-257 [3] = system: UACC-257
[4] = system: human colon adenocarcinoma cell line, LS 174T; assay: cells; conditions: LS174T
Method: Cells were seeded in 96-well microtiter plates at densities of 1000 cells/well. The optimal seeding density was determined to ensure exponential growth in control wells throughout the experimental period and to obtain a linear relationship between absorbance at 492 nm and cell number when analyzed by the sulforhodamine B (SRB) assay (43). 24 hours after seeding the cells were incubated for 1 hour or continuously for 3 days with the drugs (concentration range 0.01 to 500 pM). The cells were washed once and then incubated in drug free medium for 6 days. At the end of the incubation cell growth was determined by the SRB assay, which quantifies viable cells by measuring their total cellular protein content. […] Similar studies were conducted against the growth of PC3 (human prostate cancer cells) and MCF-7 (human breast cancer cells).

786-0 [5] = assay: cells; conditions: Homo sapiens
RXF 393 = assay: NCI in-vitro cytotoxicity screen, Renal Cancer panel; assay type: cell-based; conditions: Homo sapiens
Method: (§1) The compounds of this invention were also tested against the panel of 60 human cancer cell lines at the National Cancer Institute, Bethesda, Md. […] The cytotoxicity studies were conducted using a 48 hour exposure, and measuring the optical density of sulforhodamine B-derived color.

HCC-2998 = assay: cells; conditions: Homo sapiens
NCI-H460 = assay: NCI in-vitro cytotoxicity screen, Non-Small Cell Lung Cancer panel; assay type: cell-based; conditions: Homo sapiens
Method: as §1

UACC-257 [6] = assay: cells; conditions: Homo sapiens
SK-MEL-2 = assay: cells; conditions: Homo sapiens
HCT-15 = assay: cells; conditions: Homo sapiens
MDA-MB-231/ATCC = assay: cells; conditions: Homo sapiens
OVCAR-3 = assay: cells; conditions: Homo sapiens
SNB-19 = assay: cells; conditions: Homo sapiens
NCI-H522 = assay: cells; conditions: Homo sapiens
UACC-62 = assay: cells; conditions: Homo sapiens
M14 = assay: cells; conditions: Homo sapiens
RPMI-8226 = assay: cells; conditions: Homo sapiens
HL-60 (TB) = assay: NCI in-vitro cytotoxicity screen, Leukemia panel; assay type: cell-based, human
Method: as §1

MDA-N [7] = assay: cells; conditions: Homo sapiens
MDA-MB-435 = assay: cells; conditions: Homo sapiens
U251 = assay: cells; conditions: Homo sapiens

## 4-(2-Chloroethyl)-3-[5-(5-benzofuran-2-carboxamido)indole-2-carboxamido]phenol [Compound 1]
SW-620
  GI50: 2010 nM
  TGI: 8.19E-06 Molar
K-562
  GI50: 2880 nM
  TGI: 9.59E-06 Molar
CCRF-CEM
  GI50: 1260 nM
  TGI: 5.28E-06 Molar
HOP-62
  GI50: 453 nM
  TGI: 3.07E-06 Molar
PC-3
  GI50: 969 nM
  TGI: 3.99E-06 Molar
MDA-N [1]
  GI50: 2280 nM
  TGI: 5.47E-06 Molar
OVCAR-8
  GI50: 1320 nM
  TGI: 3.28E-06 Molar
786-0 [2]
  GI50: 2620 nM
  TGI: 1.07E-05 Molar
NCI-H23
  GI50: 1670 nM
  TGI: 3.38E-06 Molar
A549/ATCC
  GI50: 1980 nM
  TGI: 6.58E-06 Molar
SF-295
  GI50: 2320 nM
  TGI: 6.46E-06 Molar
SK-OV-3
  GI50: 2930 nM
  TGI: 7.66E-06 Molar
HT29
  GI50: 2290 nM
  TGI: 1.115E-05 Molar
SK-MEL-5
  GI50: 1730 nM
  TGI: 3.34E-06 Molar
SN12C
  GI50: 3100 nM
  TGI: 9.41E-06 Molar
UACC-257 [3]
  GI50: 1880 nM
  TGI: 3.40E-06 Molar
TK-10
  GI50: 2450 nM
  TGI: 5.85E-06 Molar
NCI-H332M
  GI50: 2830 nM
  TGI: 9.60E-06 Molar
UO-31
  GI50: 3000 nM
  TGI: 6.38E-06 Molar

## COC(=O)c1[nH]c2c(O)cc(NC(=O)c3cc4cc(OC)c(OC)c(OC)c4[nH]3)c(CCCl)c2c1C(=O)OC [Compound 22, Dimethyl 4-(2-chloroethyl)-7-hydroxy-5-(5,6,7-trimethoxyindole-2-carboxamido)indole-2,3-dicarboxylate]
[4]
  IC50: 4 nM
[4]; 1 h
  IC50: 1860 nM
786-0 [5]; 786-0
  GI50: 123 nM
786-0 [5]; 786-0, read-out: LC50
  CC50: > 50000 nM
RXF 393; RXF 393
  GI50: 74.7 nM
RXF 393; RXF 393, read-out: LC50
  CC50: 21500 nM
HCC-2998; HCC 2998
  GI50: 102 nM
HCC-2998; HCC 2998, read-out: LC50
  CC50: 10800 nM
NCI-H460
  GI50: 114 nM
UACC-257 [6]; UACC-257
  GI50: 170 nM
UACC-257 [6]; UACC-257, read-out: LC50
  CC50: > 50000 nM
SK-MEL-2; SK-MEL-2
  GI50: 83.9 nM
SK-MEL-2; SK-MEL-2, read-out: LC50
  CC50: 339 nM
HCT-15; HCT-15
  GI50: 259 nM
HCT-15; HCT-15, read-out: LC50
  CC50: > 50000 nM
MDA-MB-231/ATCC; MDA-MB-231
  GI50: 171 nM
MDA-MB-231/ATCC; MDA-MB-231, read-out: LC50
  CC50: > 50000 nM
OVCAR-3; OVCAR-3
  GI50: 139 nM
OVCAR-3; OVCAR-3, read-out: LC50
  CC50: 23000 nM
SNB-19; SNB-19
  GI50: 173 nM
SNB-19; SNB-19, read-out: LC50
  CC50: > 50000 nM
NCI-H522; NCI-H522
  GI50: 57.7 nM
NCI-H522; NCI-H522, read-out: LC50
  CC50: 373 nM
UACC-62; UACC-62
  GI50: 78.2 nM
UACC-62; UACC-62, read-out: LC50
  CC50: 436 nM
M14; M14
  GI50: 76.4 nM
M14; M14, read-out: LC50
  CC50: 368 nM
RPMI-8226; RPMI-8226
  GI50: 190 nM
RPMI-8226; RPMI-8226, read-out: LC50
  CC50: > 50000 nM
HL-60 (TB); HL-60 (TB), Log10 Concentration −4.3
  Percent Growth: 3%
HL-60 (TB); HL-60 (TB), Log10 Concentration −5.3
  Percent Growth: 9%
HL-60 (TB); Homo sapiens, HL-60, read-out: LC50
  CC50: > 50000 nM
HL-60 (TB); Homo sapiens, HL-60 (TB)
  GI50: 60.4 nM
MDA-N [7]
  GI50: 150 nM
MDA-N [7]; read-out: LC50
  CC50: > 50000 nM
MDA-MB-435; MDA-MB-435
  GI50: 137 nM
MDA-MB-435; MDA-MB-435, read-out: LC50
  CC50: > 50000 nM
U251; U-251
  GI50: 120 nM
U251; U-251, read-out: LC50
  CC50: > 50000 nM

Reference: patent publication US20030073731A1, “Compositions and methods of the use thereof achiral analogues of CC-1065 and the duocarmycins” (priority 2000, published 2003)
